These results are taken from patent US6462055B2, “Alpha-methylbenzyl-containing thiourea inhibitors of herpes viruses containing a phenylenediamine group” (Wyeth, priority 1998, dated 2002).

One assay concerns HSV-1. Nature of the assay: HSV Antiviral (ELISA) Assay in Vero cells. The format is cell-based, herpes simplex virus type 1. The following applies: HSV-1, Vero cells; for IC50: Human alphaherpesvirus 1, read-out: IC50 (ug/ml) HSV. On the procedure: Vero cells (ATCC #CCL-81) are plated on 96-well tissue culture plates at 3.5×10^4 cells per 100 μl tissue culture DMEM (Dulbeccos modified Eagle media) supplemented with 2% fetal bovine serum (FBS) in each well. After overnight incubation @ 37° C. (in 5% CO2) and 30 minutes prior to infection with HSV-1 (multiplicity of infection equal to 0.006), cells are either untreated, or treated with test compound (multiple concentrations) or reference standard drug control. After approximately 24 hours post-infection incubation @ 37° C. (in 5% CO2), cells are fixed for ELISA assay. The primary antibody is murine anti-HSV glycoprotein D monoclonal primary antibody and the secondary antibody is goat anti-mouse IgG linked to β-galactosidase. Thus the extent of viral replication is determined by assessing β-galactosidase activity by quantifying the generation of the 4-methyl umbelliferone fluorescent cleavage product after addition of the methyl umbelliferyl-β-D-galactoside (Sigma #M1633) substrate on a microfluorimeter (365 nm for excitation and 450 nm for emission). Antiviral activity (IC50) of the test compound is determined by comparing the flourescence obtained in absence of compound to that obtained in the presence of compound.
On the technique in general: ELISA stands for enzyme-linked immunosorbent assay.

Another assay has as its system VZV strain Ellen. Nature of the assay: VZV Antiviral (ELISA) Assay in human foreskin fibroblast cells. It is filed as cell-based, varicella-zoster virus. The settings on record: for IC50 / inhibition at 10 µg/mL: Human alphaherpesvirus 3, Fibroblast; for IC50: read-out: IC50 (ug/ml) VZV; for inhibition at 10 µg/mL: read-out: % inhibition 10 ug/ml VZV, 10 ug/ml. On the procedure:
For the generation of stock VZV to be used in the assay, VZV strain Ellen (ATCC #VR-1367) is used to infect human foreskin fibroblast (HFF) cells at low multiplicity (less than 0.1) and incubated overnight at 37° C. in 5% CO2. After the overnight incubation, the mixture of uninfected and VZV-infected HFF infected cells are then harvested and added to each well of 96-well plates (3.5×10^4 cells in 100 μl DMEM supplemented with 2% FBS) which contain test compound or the reference standard drug control (in 100 μl DMEM supplemented with 2% FBS per well). These cells are incubated for three days at 37° C. in 5% CO2, then fixed for ELISA assay. The primary antibody is murine anti-VZV glycoprotein II monoclonal antibody (Applied Biosystems, Inc. #13-145-100) and the secondary antibody is goat anti-mouse IgG linked to β-galactosidase. Thus the extent of viral replication is determined by assessing β-galactosidase activity by quantifying the generation of the 4-methyl umbelliferone fluorescent cleavage product after addition of the methyl umbelliferyl-β-D-galactoside (Sigma #M1633) substrate on a microfluorimeter (365 nm for excitation and 450 nm for emission). Antiviral activity (IC50) of the test compound is determined by comparing the flourescence obtained in absence of compound to that obtained in the presence of compound.

Each structure is given as a SMILES string. Converted amounts (≈) assume the structure as drawn. Some results are limits rather than exact numbers.

`C[C@H](NC(=S)Nc1ccc(NC(=O)c2ccccc2F)cc1)c1ccccc1` [Example 1013, 2-Fluoro-N-{4-[3-((1S)-1-phenyl-ethyl)-thioureido]-phenyl}-benzamide]: the IC50 is more than 10 µg/mL in the assay with HSV-1 and 0.27 µg/mL (≈ 0.686 µM) with VZV strain Ellen.

As for `CC(NC(=S)Nc1ccc(NC(=O)c2cc3ccccc3o2)cc1)c1ccc(C#N)cc1` (stereo not drawn) [Example 983, Benzofuran-2-carboxylic acid (4-{3-[1-(4-cyano-phenyl)-ethyl]-thioureido}-phenyl)-amide], the IC50 with HSV-1 was more than 10 µg/mL; in the assay with VZV strain Ellen, 0.6 µg/mL (≈ 1.36 µM).

With `CC(=O)Nc1ccc(NC(=S)Nc2ccc(NC(=O)c3ccccc3F)cc2)cc1Cl` [Example 397], the “IC50 (ug/ml) HSV” value in the assay on HSV-1 was 5 µg/mL (≈ 10.9 µM). For the same compound, in the assay on VZV strain Ellen, the “IC50 (ug/ml) VZV” value was more than 10 µg/mL and the “% inhibition 10 ug/ml VZV” value was 35%.

Turning to `O=C(Nc1ccc(NC(=S)Nc2cccc(Cl)c2Cl)cc1)c1ccccc1F` [Example 927, N-{4-[3-(2,3-Dichloro-phenyl)-thioureido]-phenyl}-2-fluoro-benzamide], the IC50 with HSV-1 came to 5 µg/mL (≈ 11.5 µM). Moreover, the inhibition at 10 µg/mL with VZV strain Ellen was 1%.

As for `C[C@@H](NC(=S)Nc1ccc(NC(=O)c2ccccc2F)cc1)c1ccccc1` [Example 1016, 2-Fluoro-N-{4-[3-((1R)-1-phenyl-ethyl)-thioureido]-phenyl}-benzamide], the IC50 in the assay with HSV-1 is more than 10 µg/mL; with VZV strain Ellen it was more than 7.5 µg/mL.

As for `C[C@@H](NC(=S)Nc1ccc(NC(=O)c2ccccc2F)cc1)c1ccc(Br)cc1` [Example 1005, N-(4-{3-[(1R)-1-(4-Bromo-phenyl)-ethyl]-thioureido}-phenyl)-2-fluoro-benzamide], the IC50 with HSV-1 is 2.9 µg/mL (≈ 6.14 µM); with VZV strain Ellen, 4.3 µg/mL (≈ 9.1 µM).

As for `COc1cccc(NC(=S)Nc2ccc(NC(=O)c3ccccc3F)cc2)c1` [Example 487], in the assay on HSV-1, the “IC50 (ug/ml) HSV” value was 4 µg/mL (≈ 10.1 µM). In the assay with VZV strain Ellen, the “IC50 (ug/ml) VZV” value was more than 10 µg/mL and the “% inhibition 10 ug/ml VZV” value is 48%.

For the compound `CC(NC(=S)Nc1ccc(NC(=O)c2ccccc2F)cc1)c1cccc(C(F)(F)F)c1` (stereo not drawn) [Example 786], the results for the IC50 with HSV-1 and in the assay on VZV strain Ellen were more than 10 µg/mL and more than 7.5 µg/mL, respectively.

`COc1cc(OC)c(NC(=S)Nc2ccc(NC(=O)c3ccccc3CO)cc2)cc1Cl` [Example 185]: in the assay on HSV-1, the “IC50 (ug/ml) HSV” value turned out to be 3 µg/mL (≈ 6.36 µM). In the assay with VZV strain Ellen, the “IC50 (ug/ml) VZV” value was more than 10 µg/mL and the “% inhibition 10 ug/ml VZV” value was 32%.

Turning to `COc1ccc(C(=O)Nc2ccc(NC(=S)Nc3ccc(OC)c(Cl)c3)cc2)cc1` [Example 820, N-{4-[3-(3-Chloro-4-methoxy-phenyl)-thioureido]-phenyl}-4-methoxy-benzamide], the IC50 with HSV-1 worked out at 4 µg/mL (≈ 9.05 µM). In the assay with VZV strain Ellen, the inhibition at 10 µg/mL turned out to be 20% and the IC50 is more than 10 µg/mL.

On to `CC(NC(=S)Nc1ccc(NC(=O)c2ccccc2F)cc1)c1ccc(S(=O)(=O)N(C)C)cc1` (stereo not drawn) [Example 1008, N-(4-{3-[1-(4-Dimethylsulfamoyl-phenyl)-ethyl]-thioureido}-phenyl)-2-fluoro-benzamide], for which the IC50 in the assay with HSV-1 and in the assay on VZV strain Ellen was more than 10 µg/mL in each case.

Consider `CC(O)c1ccc(NC(=S)Nc2ccc(NC(=O)c3ccccc3F)cc2)cc1Cl` (stereo not drawn) [Example 865, N-(4-{3-[3-Chloro-4-(1-hydroxy-ethyl)-phenyl]-thioureido}-phenyl)-2-fluoro-benzamide], for which the IC50 in the assay with HSV-1 was 4 µg/mL (≈ 9.01 µM); with VZV strain Ellen it was more than 10 µg/mL. Besides, in the assay with VZV strain Ellen, the inhibition at 10 µg/mL stood at 52%.

For the compound `Cc1cccc(NC(=S)Nc2ccc(NC(=O)c3ccccc3F)cc2)c1` [Example 432], the “IC50 (ug/ml) HSV” value with HSV-1 was determined as 1.6 µg/mL (≈ 4.22 µM). Also, in the assay with VZV strain Ellen, the “IC50 (ug/ml) VZV” value is more than 10 µg/mL and the “% inhibition 10 ug/ml VZV” value worked out at 0%.

As to `Cc1ccc([C@H](C)NC(=S)Nc2ccc(NC(=O)c3ccccc3F)cc2)cc1` [Example 1011, 2-Fluoro-N-{4-[3-((1S)-1-p-tolyl-ethyl)-thioureido]-phenyl}-benzamide], the IC50 was more than 10 µg/mL in the assay on HSV-1 and 0.55 µg/mL (≈ 1.35 µM) in the assay with VZV strain Ellen.

For the compound `Cc1ccc([C@@H](C)NC(=S)Nc2ccc(NC(=O)c3ccccc3F)cc2)cc1` [Example 1012, 2-Fluoro-N-{4-[3-((1R)-1-p-tolyl-ethyl)-thioureido]-phenyl}-benzamide], the IC50 was more than 10 µg/mL with HSV-1 and more than 7.5 µg/mL with VZV strain Ellen.

For `C[C@@H](NC(=S)Nc1ccc(NC(=O)c2ccccc2F)cc1)c1ccc(Cl)cc1` [Example 1014, N-(4-{3-[(1R)-1-(4-Chloro-phenyl)-ethyl]-thioureido}-phenyl)-2-fluoro-benzamide], the IC50 is more than 10 µg/mL with HSV-1 and more than 7.5 µg/mL in the assay with VZV strain Ellen.

Regarding `CC(NC(=S)Nc1ccc(NC(=O)c2cc3ccccc3o2)cc1)c1ccc(Br)cc1` (stereo not drawn) [Example 982, Benzofuran-2-carboxylic acid (4-{3-[1-(4-bromo-phenyl)-ethyl]-thioureido}-phenyl)-amide], the IC50 was more than 10 µg/mL in the assay with HSV-1 and 0.1 µg/mL (≈ 0.202 µM) with VZV strain Ellen.

As for `CSc1ccc(NC(=S)Nc2ccc(NC(=O)c3ccccc3F)cc2)cc1Cl` [Example 847, N-{4-[3-(3-Chloro-4-methylsulfanyl-phenyl)-thioureido]-phenyl}-2-fluoro-benzamide], the IC50 in the assay on HSV-1 is 0.4 µg/mL (≈ 0.897 µM). In the assay on VZV strain Ellen, the inhibition at 10 µg/mL is 65% and the IC50 was more than 10 µg/mL.

`COc1cc(OC)c(NC(=S)Nc2ccc(NC(=O)c3ccc4ccccc4c3)cc2)cc1Cl` [Example 156]: the “IC50 (ug/ml) HSV” value in the assay on HSV-1 is 2 µg/mL (≈ 4.07 µM). Moreover, in the assay with VZV strain Ellen, the “IC50 (ug/ml) VZV” value was more than 10 µg/mL and the “% inhibition 10 ug/ml VZV” value was 17%.

For `COc1cc(OC)c(NC(=S)Nc2ccc(NC(=O)c3ccccc3F)cc2)cc1Br` [Example 827, N-{4-[3-(5-Bromo-2,4-dimethoxy-phenyl)-thioureido]-phenyl}-2-fluoro-benzamide], the IC50 in the assay on HSV-1 worked out at 0.2 µg/mL (≈ 0.397 µM); with VZV strain Ellen, 3.5 µg/mL (≈ 6.94 µM). The inhibition at 10 µg/mL in the assay on VZV strain Ellen was 70%.

As for `CC(NC(=S)Nc1ccc(NC(=O)c2cccc(C#N)c2)cc1)c1ccc(F)cc1` (stereo not drawn) [Example 1020, 3-Cyano-N-(4-{3-[1-(4-fluoro-phenyl)-ethyl]-thioureido}-phenyl)-benzamide], the figures for the IC50 in the assay with HSV-1 and in the assay on VZV strain Ellen were more than 10 µg/mL and 6.3 µg/mL (≈ 15.1 µM), respectively.

For `CC(NC(=S)Nc1ccc(NC(=O)c2ccccc2F)cc1)c1ccc(C(F)(F)F)cc1` (stereo not drawn) [Example 787], the IC50 in the assay on HSV-1 is more than 10 µg/mL; with VZV strain Ellen it was more than 7.5 µg/mL.

With `COc1c(Cl)cc(NC(=S)Nc2ccc(NC(=O)c3ccccc3F)cc2)cc1Cl` [Example 874, N-{4-[3-(3,5-Dichloro-4-methoxy-phenyl)-thioureido]-phenyl}-2-fluoro-benzamide], the IC50 in the assay on HSV-1 came to 5 µg/mL (≈ 10.8 µM). Besides, in the assay on VZV strain Ellen, the inhibition at 10 µg/mL came out at 75% and the IC50 worked out at 3.5 µg/mL (≈ 7.54 µM).

Regarding `COc1cc(OC)c(NC(=S)Nc2ccc(NC(=O)c3cccc(N(C)C)c3)cc2)cc1Cl` [Example 136], the “IC50 (ug/ml) HSV” value in the assay with HSV-1 worked out at 1 µg/mL (≈ 2.06 µM). In addition, in the assay with VZV strain Ellen, the “IC50 (ug/ml) VZV” value is more than 10 µg/mL and the “% inhibition 10 ug/ml VZV” value was 40%.

Consider `CC(NC(=S)Nc1ccc(NC(=O)c2cc3ccccc3cn2)cc1)c1ccc(C#N)cc1` (stereo not drawn) [Example 986, Isoquinoline-3-carboxylic acid (4-{3-[1-(4-cyano-phenyl)-ethyl]-thioureido}-phenyl)-amide], for which the IC50 was more than 10 µg/mL with HSV-1 and 0.05 µg/mL (≈ 0.111 µM) in the assay on VZV strain Ellen.

As to `Cc1nc2cc(NC(=S)Nc3ccc(NC(=O)c4ccccc4F)cc3)ccc2[nH]1` [Example 497], the “IC50 (ug/ml) HSV” value with HSV-1 is more than 10 µg/mL. For the same compound, in the assay on VZV strain Ellen, the “IC50 (ug/ml) VZV” value was more than 10 µg/mL and the “% inhibition 10 ug/ml VZV” value is given as 10%.

For `CCCOc1ccc(NC(=S)Nc2ccc(NC(=O)c3ccccc3F)cc2)cc1Cl` [Example 807], the “IC50 (ug/ml) HSV” value in the assay on HSV-1 is more than 10 µg/mL. The “IC50 (ug/ml) VZV” value in the assay with VZV strain Ellen was determined as 0.9 µg/mL (≈ 1.97 µM).

On to `O=C(Nc1ccc(NC(=S)Nc2ccc3[nH]cnc3c2)cc1)c1ccccc1F` [Example 496], for which the “IC50 (ug/ml) HSV” value in the assay on HSV-1 was more than 10 µg/mL. Further, in the assay with VZV strain Ellen, the “IC50 (ug/ml) VZV” value is more than 10 µg/mL and the “% inhibition 10 ug/ml VZV” value was 25%.
